Measured values published in patent US20070203216A1, “METHOD OF TREATING INFLAMMATORY DISEASES” (priority 2006, published 2007).
Entries after “also recorded” stand apart in the source; their conditions may differ.

Columns and labels:
chronic mild stress rats = experiment: Chronic mild stress model in rats, serum marker analysis; settings: CMS rats; for reversal of stress-induced alterations in serum markers: versus non-stressed controls;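 as to all read-outs here: terminal serum drawn from the tail of rats 24 h after the final drug dose, profiled within a panel of roughly 60 blood markers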
Experimental: At the end of the present study, terminal serum samples were collected for marker analysis to evaluate the effects of stress with and without drug on the levels of about 60 blood markers.
Serum samples were withdrawn from the tail, without stunning, during the daytime (09:00-17:00) 24 hrs after the last drug injection. Blood was collected into BD vacutainers containing clot activator and gel for serum preparation, inverted 5 times and maintained on ice until centrifugation at 3000 rpm for 10 min at 4° C. Serum was decanted, placed on ice, and at the end of the day stored at −80° C.

formalin pain model = settings: U.S. Patent Application Publication No. 2005/0288371; cited from earlier work
[1] = 1st study, 5 mg/kg, serum, median
[2] = 2nd study, 10 mg/kg, serum, median

With CN(C)CCC[C@@]1(c2ccc(F)cc2)OCc2cc(C#N)ccc21 [ESC, Escitalopram, reference compound] the “Apo A1 (Apolipoprotein A1)” value (chronic mild stress rats; [1]) was 8.40 µg/mL, the “CRP (C Reactive Protein)” value (chronic mild stress rats; [1]) was 1060.00 µg/mL and the Eotaxin (chronic mild stress rats; [1]) was 1300.00 pg/mL. For the same compound, the “FGF-9 (Fibroblast Growth Factor-9)” value (chronic mild stress rats; [1]) was 0.90 ng/mL, the “GCP-2 (Granulocyte Chemotactic Protein-2)” value (chronic mild stress rats; [1]) was 0.21 ng/mL and the “Growth Hormone” value (chronic mild stress rats; [1]) was 1.38 ng/mL. For the same compound, the “IL-1alpha (Interleukin-1alpha)” value (chronic mild stress rats; [1]) was 15.40 pg/mL, the “IL-2 (Interleukin-2)” value (chronic mild stress rats; [1]) was 38.80 pg/mL and the “IL-4 (Interleukin-4)” value (chronic mild stress rats; [1]) was 51.70 pg/mL. The “IL-7 (Interleukin-7)” value (chronic mild stress rats; [1]) was 0.22 ng/mL, the “IL-10 (Interleukin-10)” value (chronic mild stress rats; [1]) was 317.00 pg/mL and the “IL-11 (Interleukin-11)” value (chronic mild stress rats; [1]) was 166.00 pg/mL. For the same compound, the “IP-10 (Inducible Protein-10)” value (chronic mild stress rats; [1]) was 194.00 pg/mL, the “IgA (Immunoglobulin A)” value (chronic mild stress rats; [1]) was 6.54 µg/mL and the Insulin (chronic mild stress rats; [1]) was 11.30 ulU/mL. For the same compound, the “LIF (Leukemia Inhibitory Factor)” value (chronic mild stress rats; [1]) was 67.20 pg/mL, the Leptin (chronic mild stress rats; [1]) was 2.62 ng/mL and the Lymphotactin (chronic mild stress rats; [1]) was 68.00 pg/mL. The “M-CSF (Macrophage-Colony Stimulating Factor)” value (“M-CSF” for short) (chronic mild stress rats; [1]) was 941.00 ng/mL, the “MCP-1 (Monocyte Chemoattractant Protein-1)” value (chronic mild stress rats; [1]) was 1500.00 pg/mL and the “MCP-3 (Monocyte Chemoattractant Protein-3)” value (chronic mild stress rats; [1]) was 885.00 pg/mL. For the same compound, the “MCP-5 (Monocyte Chemoattractant Protein-5)” value (chronic mild stress rats; [1]) was 0.87 pg/mL, the “MIP-1alpha (Macrophage Inflammatory Protein-1alpha)” value (“MIP-1alpha” below) (chronic mild stress rats; [1]) was 244.00 ng/mL and the “MIP-1gamma (Macrophage Inflammatory Protein-1gamma)” value (“MIP-1gamma” below) (chronic mild stress rats; [1]) was 11.50 ng/mL. The “MIP-2 (Macrophage Inflammatory Protein-2)” value (chronic mild stress rats; [1]) was 0.09 pg/mL, the “MPO (Myeloperoxidase)” value (chronic mild stress rats; [1]) was 54.60 ng/mL and the “NGAL (Lipocalin-2)” value (chronic mild stress rats; [1]) was 0.22 ng/mL. For the same compound, the Osteopontin (chronic mild stress rats; [1]) was 310.00 ng/mL, the “SAP (Serum Amyloid P)” value (chronic mild stress rats; [1]) was 178.00 µg/mL and the “SCF (Stem Cell Factor)” value (chronic mild stress rats; [1]) was 16.95 pg/mL. For the same compound, the “SGOT (Serum Glutamic-Oxaloacetic Transaminase)” value (“SGOT” below) (chronic mild stress rats; [1]) was 0.31 µg/mL, the “TIMP-1 (Tissue Inhibitor of Metalloproteinase Type-1)” value (chronic mild stress rats; [1]) was 0.22 ng/mL and the “TPO (Thrombopoietin)” value (chronic mild stress rats; [1]) was 142.00 ng/mL. For the same compound, the “Tissue Factor” value (chronic mild stress rats; [1]) was 0.15 ng/mL, the “VCAM-1 (Vascular Cell Adhesion Molecule-1)” value (chronic mild stress rats; [1]) was 409.00 ng/mL and the “VEGF (Vascular Endothelial Cell Growth Factor)” value (“VEGF” below) (chronic mild stress rats; [1]) was 106.00 pg/mL. The “reversal of stress-induced alterations in serum markers” value (chronic mild stress rats) was “inactive at most of these changes”.
In the case of Oc1noc2c1CCNC2 [GBX, 4,5,6,7-tetrahydroisoxazolo [5,4-c] pyridine-3-ol], the “pain response in phase 2 of the formalin pain model” value (formalin pain model) is listed as “inhibit the pain response in phase 2”, the “Apo A1 (Apolipoprotein A1)” value (chronic mild stress rats; [1]) is listed as 8.20 µg/mL and the “CRP (C Reactive Protein)” value (chronic mild stress rats; [1]) is listed as 1140.00 µg/mL. For the same compound, the Cystatin-C (chronic mild stress rats; [1]) was 1165.00 ng/mL, the “FGF-9 (Fibroblast Growth Factor-9)” value (chronic mild stress rats; [1]) was 0.59 ng/mL and the “GCP-2 (Granulocyte Chemotactic Protein-2)” value (chronic mild stress rats; [1]) was 0.19 ng/mL. The “Growth Hormone” value (chronic mild stress rats; [1]) was 7.67 ng/mL, the “IL-1alpha (Interleukin-1alpha)” value (chronic mild stress rats; [1]) was 11.30 pg/mL and the “IL-2 (Interleukin-2)” value (chronic mild stress rats; [1]) was 31.30 pg/mL. For the same compound, the “IL-4 (Interleukin-4)” value (chronic mild stress rats; [1]) was 29.60 pg/mL, the “IL-7 (Interleukin-7)” value (chronic mild stress rats; [1]) was 0.16 ng/mL and the “IL-10 (Interleukin-10)” value (chronic mild stress rats; [1]) was 249.00 pg/mL. The “IL-11 (Interleukin-11)” value (chronic mild stress rats; [1]) was 128.00 pg/mL, the “IL-18 (Interleukin-18)” value (chronic mild stress rats; [1]) was 0.07 ng/mL and the “IP-10 (Inducible Protein-10)” value (chronic mild stress rats; [1]) was 138.00 pg/mL. The “IgA (Immunoglobulin A)” value (chronic mild stress rats; [1]) was 5.91 µg/mL, the Insulin (chronic mild stress rats; [1]) was 8.88 ulU/mL and the “LIF (Leukemia Inhibitory Factor)” value (chronic mild stress rats; [1]) was 53.90 pg/mL. For the same compound, the Leptin (chronic mild stress rats; [1]) was 2.59 ng/mL, the Lymphotactin (chronic mild stress rats; [1]) was 53.80 pg/mL and the “M-CSF” value (chronic mild stress rats; [1]) was 865.00 ng/mL. The “MCP-1 (Monocyte Chemoattractant Protein-1)” value (chronic mild stress rats; [1]) was 1185.00 pg/mL, the “MCP-3 (Monocyte Chemoattractant Protein-3)” value (chronic mild stress rats; [1]) was 655.00 pg/mL and the “MCP-5 (Monocyte Chemoattractant Protein-5)” value (chronic mild stress rats; [1]) was 0.77 pg/mL. For the same compound, the “MIP-1alpha” value (chronic mild stress rats; [1]) was 173.00 ng/mL, the “MIP-1gamma” value (chronic mild stress rats; [1]) was 7.95 ng/mL and the “MIP-2 (Macrophage Inflammatory Protein-2)” value (chronic mild stress rats; [1]) was 0.08 pg/mL. For the same compound, the “MPO (Myeloperoxidase)” value (chronic mild stress rats; [1]) was 20.80 ng/mL, the “NGAL (Lipocalin-2)” value (chronic mild stress rats; [1]) was 0.17 ng/mL and the Osteopontin (chronic mild stress rats; [1]) was 396.00 ng/mL. For the same compound, the “SAP (Serum Amyloid P)” value (chronic mild stress rats; [1]) was 133.00 µg/mL, the “SCF (Stem Cell Factor)” value (chronic mild stress rats; [1]) was 14.85 pg/mL and the “SGOT” value (chronic mild stress rats; [1]) was 0.21 µg/mL. The “TIMP-1 (Tissue Inhibitor of Metalloproteinase Type-1)” value (chronic mild stress rats; [1]) was 0.16 ng/mL, the “TPO (Thrombopoietin)” value (chronic mild stress rats; [1]) was 147.00 ng/mL and the “Tissue Factor” value (chronic mild stress rats; [1]) was 0.10 ng/mL. The “VCAM-1 (Vascular Cell Adhesion Molecule-1)” value (chronic mild stress rats; [1]) was 361.00 ng/mL, the “VEGF” value (chronic mild stress rats; [1]) was 81.00 pg/mL and the “Apo A1 (Apolipoprotein A1)” value (chronic mild stress rats; [2]) was 6.20 µg/mL. For the same compound, the “Beta-2 Microglobulin” value (chronic mild stress rats; [2]) was 38.00 µg/mL, the “CRP (C Reactive Protein)” value (chronic mild stress rats; [2]) was 1030.00 µg/mL and the Clusterin (chronic mild stress rats; [2]) was 108.00 µg/mL. The Cystatin-C (chronic mild stress rats; [2]) was 696.00 ng/mL, the Eotaxin (chronic mild stress rats; [2]) was 1072.00 pg/mL and the “FGF-9 (Fibroblast Growth Factor-9)” value (chronic mild stress rats; [2]) was 1.70 ng/mL. The “Factor VII” value (chronic mild stress rats; [2]) was 0.30 ng/mL, the “GCP-2 (Granulocyte Chemotactic Protein-2)” value (chronic mild stress rats; [2]) was 0.29 ng/mL and the GST-Mu (chronic mild stress rats; [2]) was 1190.00 ng/mL. The “Growth Hormone” value (chronic mild stress rats; [2]) was 3.10 ng/mL, the “IL-1beta (Interleukin-1beta)” value (chronic mild stress rats; [2]) was 0.56 ng/mL and the “IL-2 (Interleukin-2)” value (chronic mild stress rats; [2]) was 22.00 pg/mL. The “IL-5 (Interleukin-5)” value (chronic mild stress rats; [2]) was 0.24 ng/mL, the “IL-7 (Interleukin-7)” value (chronic mild stress rats; [2]) was 0.06 ng/mL and the “IL-10 (Interleukin-10)” value (chronic mild stress rats; [2]) was 362.00 pg/mL. The “IL-18 (Interleukin-18)” value (chronic mild stress rats; [2]) was 0.43 ng/mL, the “IP-10 (Inducible Protein-10)” value (chronic mild stress rats; [2]) was 41.00 pg/mL and the “IgA (Immunoglobulin A)” value (chronic mild stress rats; [2]) was 4.30 µg/mL. The Insulin (chronic mild stress rats; [2]) was 14.50 ulU/mL, the “LIF (Leukemia Inhibitory Factor)” value (chronic mild stress rats; [2]) was 67.00 pg/mL and the Leptin (chronic mild stress rats; [2]) was 1.35 ng/mL. For the same compound, the Lymphotactin (chronic mild stress rats; [2]) was 63.00 pg/mL, the “M-CSF” value (chronic mild stress rats; [2]) was 1400.00 ng/mL and the “MCP-1 (Monocyte Chemoattractant Protein-1)” value (chronic mild stress rats; [2]) was 1020.00 pg/mL. For the same compound, the “MCP-3 (Monocyte Chemoattractant Protein-3)” value (chronic mild stress rats; [2]) was 659.00 pg/mL, the “MCP-5 (Monocyte Chemoattractant Protein-5)” value (chronic mild stress rats; [2]) was 0.72 pg/mL and the “MDC (Macrophage-Derived Chemokine)” value (chronic mild stress rats; [2]) was 0.12 pg/mL. For the same compound, the “MIP-1alpha” value (chronic mild stress rats; [2]) was 127.00 ng/mL, the “MIP-1beta (Macrophage Inflammatory Protein-1beta)” value (chronic mild stress rats; [2]) was 0.01 pg/mL and the “MIP-1gamma” value (chronic mild stress rats; [2]) was 19.00 ng/mL. For the same compound, the “MIP-2 (Macrophage Inflammatory Protein-2)” value (chronic mild stress rats; [2]) was 0.22 pg/mL, the “MIP-3beta (Macrophage Inflammatory Protein-3beta)” value (chronic mild stress rats; [2]) was 29.70 ng/mL and the “MPO (Myeloperoxidase)” value (chronic mild stress rats; [2]) was 533.00 ng/mL. For the same compound, the Myoglobin (chronic mild stress rats; [2]) was 520.00 ng/mL, the “NGAL (Lipocalin-2)” value (chronic mild stress rats; [2]) was 0.15 ng/mL and the “OSM (Oncostatin M)” value (chronic mild stress rats; [2]) was 19.10 ng/mL. The Osteopontin (chronic mild stress rats; [2]) was 255.00 ng/mL, the “RANTES (Regulation Upon Activation, Normal T-Cell Expressed and Secreted)” value (chronic mild stress rats; [2]) was 10.60 pg/mL and the “SAP (Serum Amyloid P)” value (chronic mild stress rats; [2]) was 403.00 µg/mL. The “SCF (Stem Cell Factor)” value (chronic mild stress rats; [2]) was 11.30 pg/mL, the “SGOT” value (chronic mild stress rats; [2]) was 8.53 µg/mL and the “TIMP-1 (Tissue Inhibitor of Metalloproteinase Type-1)” value (chronic mild stress rats; [2]) was 0.24 ng/mL. For the same compound, the “TNF-alpha (Tumor Necrosis Factor-alpha)” value (chronic mild stress rats; [2]) was 4.45 ng/mL, the “TPO (Thrombopoietin)” value (chronic mild stress rats; [2]) was 119.00 ng/mL and the “Tissue Factor” value (chronic mild stress rats; [2]) was 0.06 ng/mL. For the same compound, the “VCAM-1 (Vascular Cell Adhesion Molecule-1)” value (chronic mild stress rats; [2]) was 353.00 ng/mL, the “VEGF” value (chronic mild stress rats; [2]) was 78.00 pg/mL and the “reversal of stress-induced alterations in serum markers” value (chronic mild stress rats; listed as gaboxadol) was “significantly reversed the stress-induced alterations in serum markers; also recorded: dose dependently is able to reverse or partially reverse changes”.
